US8741836B2, “Polypeptides” (Novo Nordisk A/S, priority 2011, dated 2014)
Starred links: 1 amine or outer side, 2 acyl side, 3 side chain; linkers in the order of their positions; H or OH if unused. Positions of bridges follow the written chain, without caps; N, C: chain ends. Residues, ends and D or L forms follow the SMILES beside them. *: point of attachment. C20 diacid = O=C(O)CCCCCCCCCCCCCCCCCCC(=O)*; C18 diacid = O=C(O)CCCCCCCCCCCCCCCCC(=O)*; γGlu = O=C(O)[C@H](CCC(=O)[*:2])N[*:1]

Assay: Assay (III) ThT fibrillation assay for physical stability
Format: physicochemical
Conditions: for ThT pH 4.0 lag time: pH 4.0, ThT fibrillation assay
In short: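 Freshly prepared, pH-adjusted formulations with 1 μM ThT incubated at 37 °C under 960 rpm orbital shaking (1 mm), fluorescence (ex 444, em 485 nm) read every 20 min. […] Peptide content before and after measured by reverse-phase HPLC against pramlintide standard.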

| SMILES | ThT pH 4.0 lag time (physical stability in fibrillogenesis assay) | ThT pH 4.0 lag time |
| --- | --- | --- |
| CC[C@H](C)[C@H](NC(=O)[C@@H]1CCCN1C(=O)CNC(=O)[C@H](Cc1ccccc1)NC(=O)[C@H](CC(N)=O)NC(=O)[C@H](CC(N)=O)NC(=O)[C@H](CO)NC(=O)[C@H](CO)NC(=O)[C@H](CCCNC(=N)N)NC(=O)[C@H](Cc1c[nH]cn1)NC(=O)[C@H](CC(C)C)NC(=O)[C@H](Cc1ccccc1)NC(=O)[C@H](CCC(=O)O)NC(=O)[C@H](C)NC(=O)[C@H](CC(C)C)NC(=O)[C@H](CCCNC(=N)N)NC(=O)[C@H](CCC(N)=O)NC(=O)[C@@H](NC(=O)[C@H](C)NC(=O)[C@@H]1CSSC[C@H](NC(=O)[C@H](CCCCN)NC(=O)CC[C@H](NC(=O)CCCCCCCCCCCCCCCCCCC(=O)O)C(=O)O)C(=O)N[C@@H](CC(N)=O)C(=O)N[C@@H]([C@@H](C)O)C(=O)N[C@@H](C)C(=O)N[C@@H]([C@@H](C)O)C(=O)N1)[C@@H](C)O)C(=O)N[C@@H](CC(C)C)C(=O)N1CCC[C@H]1C(=O)N1CCC[C@H]1C(=O)N[C@H](C(=O)N[C@@H](CC(N)=O)C(=O)N[C@H](C(=O)NCC(=O)N[C@@H](CO)C(=O)N[C@@H](Cc1c[nH]cn1)C(=O)N[C@H](C(=O)N[C@@H](Cc1ccc(O)cc1)C(N)=O)[C@@H](C)O)C(C)C)[C@@H](C)O [Example 78, N-alpha-[(S)-4-Carboxy-4-(19-carboxynonadecanoylamino)butyryl]-[Glu14,His17,Arg18,His35]-pramlintide] ({C20 diacid-γGlu}-KCNTATCATQRLAEFLHRSSNNFGPILPPTNVGSHTY-NH2; disulfide 2-7 (inferred)) |  | >45 h |
| CC[C@H](C)[C@H](NC(=O)[C@@H]1CCCN1C(=O)CNC(=O)[C@H](Cc1ccccc1)NC(=O)[C@H](CC(N)=O)NC(=O)[C@H](CC(N)=O)NC(=O)[C@H](CO)NC(=O)[C@H](CO)NC(=O)[C@H](Cc1c[nH]cn1)NC(=O)[C@H](CCCNC(=N)N)NC(=O)[C@H](CC(C)C)NC(=O)[C@H](Cc1ccccc1)NC(=O)[C@H](CCC(=O)O)NC(=O)[C@H](C)NC(=O)[C@H](CC(C)C)NC(=O)[C@H](CCCNC(=N)N)NC(=O)[C@H](CCC(N)=O)NC(=O)[C@@H](NC(=O)[C@H](C)NC(=O)[C@@H]1CSSC[C@H](NC(=O)[C@H](CCCCN)NC(=O)[C@H](CCC(=O)O)NC(=O)CC[C@H](NC(=O)CCCCCCCCCCCCCCCCC(=O)O)C(=O)O)C(=O)N[C@@H](CC(N)=O)C(=O)N[C@@H]([C@@H](C)O)C(=O)N[C@@H](C)C(=O)N[C@@H]([C@@H](C)O)C(=O)N1)[C@@H](C)O)C(=O)N[C@@H](CC(C)C)C(=O)N1CCC[C@H]1C(=O)N1CCC[C@H]1C(=O)N[C@H](C(=O)N[C@@H](CC(N)=O)C(=O)N[C@H](C(=O)NCC(=O)N[C@@H](CO)C(=O)N[C@@H](Cc1c[nH]cn1)C(=O)N[C@H](C(=O)N[C@@H](Cc1ccc(O)cc1)C(N)=O)[C@@H](C)O)C(C)C)[C@@H](C)O [Example 62, N-alpha-[(S)-4-Carboxy-4-(17-carboxyheptadecanoylamino)butyryl]-Glu-[Glu14,Arg17,His35]-pramlintide] ({C18 diacid-γGlu}-EKCNTATCATQRLAEFLRHSSNNFGPILPPTNVGSHTY-NH2; disulfide 3-8 (inferred); C-terminus assumed) |  | 30 h |
| CC[C@H](C)[C@H](NC(=O)[C@@H]1CCCN1C(=O)CNC(=O)[C@H](Cc1ccccc1)NC(=O)[C@H](CC(N)=O)NC(=O)[C@H](CC(N)=O)NC(=O)[C@H](CO)NC(=O)[C@H](CO)NC(=O)[C@H](Cc1c[nH]cn1)NC(=O)[C@H](CCCNC(=N)N)NC(=O)[C@H](CC(C)C)NC(=O)[C@H](Cc1ccccc1)NC(=O)[C@H](CCC(=O)O)NC(=O)[C@H](C)NC(=O)[C@H](CC(C)C)NC(=O)[C@H](CCCNC(=N)N)NC(=O)[C@H](CCC(N)=O)NC(=O)[C@@H](NC(=O)[C@H](C)NC(=O)[C@@H]1CSSC[C@H](NC(=O)[C@H](CCCCN)NC(=O)[C@H](Cc2c[nH]cn2)NC(=O)[C@H](Cc2c[nH]cn2)NC(=O)CC[C@H](NC(=O)CCCCCCCCCCCCCCCCCCC(=O)O)C(=O)O)C(=O)N[C@@H](CC(N)=O)C(=O)N[C@@H]([C@@H](C)O)C(=O)N[C@@H](C)C(=O)N[C@@H]([C@@H](C)O)C(=O)N1)[C@@H](C)O)C(=O)N[C@@H](CC(C)C)C(=O)N1CCC[C@H]1C(=O)N1CCC[C@H]1C(=O)N[C@H](C(=O)N[C@@H](CC(N)=O)C(=O)N[C@H](C(=O)NCC(=O)N[C@@H](CO)C(=O)N[C@@H](Cc1c[nH]cn1)C(=O)N[C@H](C(=O)N[C@@H](Cc1ccc(O)cc1)C(N)=O)[C@@H](C)O)C(C)C)[C@@H](C)O [Example 69, N-alpha-[(S)-4-Carboxy-4-(19-carboxynonadecanoylamino)butyryl]-His-His-[Glu14,Arg17,His35]-pramlintide] ({C20 diacid-γGlu}-HHKCNTATCATQRLAEFLRHSSNNFGPILPPTNVGSHTY-NH2; disulfide 4-9) |  | >45 h |

The remaining lines, values ahead:

| ThT pH 4.0 lag time (physical stability in fibrillogenesis assay) | ThT pH 4.0 lag time | SMILES |
| --- | --- | --- |
| >45 h | >45 h | CC[C@H](C)[C@H](NC(=O)[C@@H]1CCCN1C(=O)CNC(=O)[C@H](Cc1ccccc1)NC(=O)[C@H](CC(N)=O)NC(=O)[C@H](CCC(N)=O)NC(=O)[C@H](CO)NC(=O)[C@H](CO)NC(=O)[C@H](Cc1c[nH]cn1)NC(=O)[C@H](CCCNC(=N)N)NC(=O)[C@H](CC(C)C)NC(=O)[C@H](Cc1ccccc1)NC(=O)[C@H](CCC(=O)O)NC(=O)[C@H](C)NC(=O)[C@H](CC(C)C)NC(=O)[C@H](CCCNC(=N)N)NC(=O)[C@H](CCC(N)=O)NC(=O)[C@@H](NC(=O)[C@H](C)NC(=O)[C@@H]1CSSC[C@H](NC(=O)[C@H](CCC(=O)O)NC(=O)[C@H](CCCNC(=N)N)NC(=O)[C@H](CCC(=O)O)NC(=O)CC[C@H](NC(=O)CCCCCCCCCCCCCCCCCCC(=O)O)C(=O)O)C(=O)N[C@@H](CC(N)=O)C(=O)N[C@@H]([C@@H](C)O)C(=O)N[C@@H](C)C(=O)N[C@@H]([C@@H](C)O)C(=O)N1)[C@@H](C)O)C(=O)N[C@@H](CC(C)C)C(=O)N1CCC[C@H]1C(=O)N1CCC[C@H]1C(=O)N[C@H](C(=O)N[C@@H](CC(N)=O)C(=O)N[C@H](C(=O)NCC(=O)N[C@@H](CO)C(=O)N[C@@H](CC(N)=O)C(=O)N[C@H](C(=O)N1CCC[C@H]1C(N)=O)[C@@H](C)O)C(C)C)[C@@H](C)O [Example 161, N-alpha-[(S)-4-Carboxy-4-(19-carboxynonadecanoylamino)butyryl]-Glu-Arg-[Glu1,Glu14,Arg17,Gln21,Pro37]-pramlintide] ({C20 diacid-γGlu}-ERECNTATCATQRLAEFLRHSSQNFGPILPPTNVGSNTP-NH2; disulfide 4-9 (inferred)) |
| >45 h | >45 h | CC[C@H](C)[C@H](NC(=O)[C@@H]1CCCN1C(=O)CNC(=O)[C@H](Cc1ccccc1)NC(=O)[C@H](CC(N)=O)NC(=O)[C@@H](NC(=O)[C@H](CO)NC(=O)[C@H](CO)NC(=O)[C@H](Cc1c[nH]cn1)NC(=O)[C@H](Cc1c[nH]cn1)NC(=O)[C@H](CC(C)C)NC(=O)[C@H](Cc1ccccc1)NC(=O)[C@H](CCC(=O)O)NC(=O)[C@H](C)NC(=O)[C@H](CC(C)C)NC(=O)[C@H](CCCNC(=N)N)NC(=O)[C@H](CCC(N)=O)NC(=O)[C@@H](NC(=O)[C@H](C)NC(=O)[C@@H]1CSSC[C@H](NC(=O)[C@H](CCCCN)NC(=O)CC[C@H](NC(=O)CCCCCCCCCCCCCCCCCCC(=O)O)C(=O)O)C(=O)N[C@@H](CC(N)=O)C(=O)N[C@@H]([C@@H](C)O)C(=O)N[C@@H](C)C(=O)N[C@@H]([C@@H](C)O)C(=O)N1)[C@@H](C)O)[C@@H](C)O)C(=O)N[C@@H](CC(C)C)C(=O)N1CCC[C@H]1C(=O)N1CCC[C@H]1C(=O)N[C@H](C(=O)N[C@@H](CC(N)=O)C(=O)N[C@H](C(=O)NCC(=O)N[C@@H](CO)C(=O)N[C@@H](CC(N)=O)C(=O)N[C@H](C(=O)N1CCC[C@H]1C(N)=O)[C@@H](C)O)C(C)C)[C@@H](C)O [Example 146, N-alpha-[(S)-4-Carboxy-4-(19-carboxynonadecanoylamino)butyryl]-[Glu14,His17,Thr21,Pro37]-pramlintide] ({C20 diacid-γGlu}-KCNTATCATQRLAEFLHHSSTNFGPILPPTNVGSNTP-NH2; disulfide 2-7) |
| >45 h | >45 h | CC[C@H](C)[C@H](NC(=O)[C@@H]1CCCN1C(=O)CNC(=O)[C@H](Cc1ccccc1)NC(=O)[C@H](CC(N)=O)NC(=O)[C@H](CC(N)=O)NC(=O)[C@H](CO)NC(=O)[C@H](CO)NC(=O)[C@H](Cc1c[nH]cn1)NC(=O)[C@H](CCCNC(=N)N)NC(=O)[C@H](CC(C)C)NC(=O)[C@H](Cc1ccccc1)NC(=O)[C@H](CCC(=O)O)NC(=O)[C@H](C)NC(=O)[C@H](CC(C)C)NC(=O)[C@H](CCCNC(=N)N)NC(=O)[C@H](CCC(N)=O)NC(=O)[C@@H](NC(=O)[C@H](C)NC(=O)[C@@H]1CSSC[C@H](NC(=O)[C@H](CCC(=O)O)NC(=O)[C@H](CCCNC(=N)N)NC(=O)[C@H](CCC(=O)O)NC(=O)CC[C@H](NC(=O)CCCCCCCCCCCCCCCCCCC(=O)O)C(=O)O)C(=O)N[C@@H](CC(N)=O)C(=O)N[C@@H]([C@@H](C)O)C(=O)N[C@@H](C)C(=O)N[C@@H]([C@@H](C)O)C(=O)N1)[C@@H](C)O)C(=O)N[C@@H](CC(C)C)C(=O)N1CCC[C@H]1C(=O)N1CCC[C@H]1C(=O)N[C@H](C(=O)N[C@@H](CC(N)=O)C(=O)N[C@H](C(=O)NCC(=O)N[C@@H](CO)C(=O)N[C@@H](CC(N)=O)C(=O)N[C@H](C(=O)N1CCC[C@H]1C(N)=O)[C@@H](C)O)C(C)C)[C@@H](C)O [Example 124, N-alpha-[(S)-4-Carboxy-4-(19-carboxynonadecanoylamino)butyryl]-Glu-Arg-[Glu1,Glu14,Arg17,Pro37]-pramlintide] ({C20 diacid-γGlu}-ERECNTATCATQRLAEFLRHSSNNFGPILPPTNVGSNTP-NH2; disulfide 4-9 (inferred); C-terminus assumed) |
